For assay [1], the target named is T1, 5-hydroxytryptamine receptor 1A (Rattus norvegicus, UniProt P19327).
T1 sequence (P19327 whole entry): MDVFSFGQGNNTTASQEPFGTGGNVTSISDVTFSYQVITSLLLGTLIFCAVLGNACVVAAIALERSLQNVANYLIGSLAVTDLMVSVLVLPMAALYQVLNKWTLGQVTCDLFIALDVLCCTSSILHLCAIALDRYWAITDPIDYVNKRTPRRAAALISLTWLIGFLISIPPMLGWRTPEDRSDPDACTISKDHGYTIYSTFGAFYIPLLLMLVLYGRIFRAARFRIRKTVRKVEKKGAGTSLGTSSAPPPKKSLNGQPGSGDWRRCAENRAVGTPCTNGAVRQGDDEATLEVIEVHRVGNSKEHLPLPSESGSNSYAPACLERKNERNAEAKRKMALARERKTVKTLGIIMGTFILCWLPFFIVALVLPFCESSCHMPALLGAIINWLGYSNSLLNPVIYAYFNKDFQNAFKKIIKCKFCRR
The assay can be described thus: Binding affinity by measuring displacement of [3H]-8-OH-DPAT from 5-hydroxytryptamine 1A receptor in rat hippocampus. It counts as tissue-based.

Assay [2] deals with Mus musculus. The assay can be described thus: Ability to reverse scopolamine-induced amnesia in a passive avoidance test to assess memory impairment administered perorally 30 mg/kg. Conditions: route oral. It counts as functional.
Assay [3] deals with Mus musculus. The assay can be described thus: Ability to reverse scopolamine-induced amnesia in a passive avoidance test to assess memory impairment administered perorally 10 mg/kg. Format: functional. To be noted: route oral.
Assay [4] has as its system Mus musculus. The assay can be described thus: Ability to reverse scopolamine-induced amnesia in a passive avoidance test to assess memory impairment administered perorally 3 mg/kg. To be noted: route oral. It counts as functional.
The test system of assay [5] is Rattus norvegicus. The assay can be described thus: Anticonflict activity on water lick conflict test in rats by measuring no. of shocks in 5 min. administered perorally at 3 mg/kg. It counts as functional. To be noted: route oral.
Assay [6] relates to Rattus norvegicus. The assay can be described thus: Anticonflict activity on water lick conflict test in rats is no of shocks in 5 min. administered perorally 1 mg/kg (no. of rats). It counts as functional. Conditions: route oral.
Assay [7] relates to Rattus norvegicus. The assay can be described thus: Anticonflict activity on water lick conflict test in rats by measuring no. of shocks in 5 min. administered perorally at 30 mg/kg. Format: functional. Conditions: route oral.
In assay [8] the target is T1, 5-hydroxytryptamine receptor 1A. The assay can be described thus: Inhibitory concentration against 5-hydroxytryptamine 1A receptor.
Assay [9] deals with Mus musculus. The assay can be described thus: Ability to reverse scopolamine-induced amnesia in a passive avoidance test to assess memory impairment administered perorally 1 mg/kg. It counts as functional. Conditions: route oral.
The subject of assay [10] is Rattus norvegicus. The experiment in a line: Anticonflict activity on water lick conflict test in rats by measuring no. of shocks in 5 min. administered perorally at 10 mg/kg. Format: functional. To be noted: route oral.
The test system of assay [11] is Mus musculus. The experiment in a line: Ability to reverse scopolamine-induced amnesia in a passive avoidance test to assess memory impairment administered perorally at 30 mg/kg. Format: functional. Conditions: route oral.
The test system of assay [12] is Rattus norvegicus. The assay can be described thus: Anticonflict activity on water lick conflict test in rats by measuring no. of shocks in 5 min. administered perorally at 1 mg/kg. Format: functional. Conditions: route oral.
The target in assay [13] is T1, 5-hydroxytryptamine receptor 1A. The experiment in a line: Binding affinity for 5-hydroxytryptamine 1A receptor by use of [3H]8-OH-DPAT in male rat.
Assay [14] has as its system Rattus norvegicus. The assay can be described thus: Anticonflict activity on water lick conflict test in rats is no. of shocks in 5 min; administered perorally 10 mg/kg (no. of rats). It counts as functional. Conditions: route oral.
Assay [15] deals with Mus musculus. The experiment in a line: Ability to reverse scopolamine-induced amnesia in a passive avoidance test to assess memory impairment; administered perorally 5 mg/kg (no. of mice). It counts as functional. Conditions: route oral.
Assay [16] has as its system Mus musculus. The assay can be described thus: Ability to reverse scopolamine-induced amnesia in a passive avoidance test to assess memory impairment administered perorally 1 mg/kg (no. of mice). It counts as functional. Conditions: route oral.
The next assay deals with D(2) dopamine receptor (Homo sapiens, UniProt P14416). The assay can be described thus: Binding affinity for DA2 receptor.

Structures can show the parent of a compound that is named as a salt.

The IC50 is the concentration at which inhibition is half-maximal. Read a low IC50 as greater potency in that assay. The term Ki denotes a measure of affinity in units of concentration, obtained from inhibition or displacement.

Sequence of D(2) dopamine receptor (P14416 whole entry): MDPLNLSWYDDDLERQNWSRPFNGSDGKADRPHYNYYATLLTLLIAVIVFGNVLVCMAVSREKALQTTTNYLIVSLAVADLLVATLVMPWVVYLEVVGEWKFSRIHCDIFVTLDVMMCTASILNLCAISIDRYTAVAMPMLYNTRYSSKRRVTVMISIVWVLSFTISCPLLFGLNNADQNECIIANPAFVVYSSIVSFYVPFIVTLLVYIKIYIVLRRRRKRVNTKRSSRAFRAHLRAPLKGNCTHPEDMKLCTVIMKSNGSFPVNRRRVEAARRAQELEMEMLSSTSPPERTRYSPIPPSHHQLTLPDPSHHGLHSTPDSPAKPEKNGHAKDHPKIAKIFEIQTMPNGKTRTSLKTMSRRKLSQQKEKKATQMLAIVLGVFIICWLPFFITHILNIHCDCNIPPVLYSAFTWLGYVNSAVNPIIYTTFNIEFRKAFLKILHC

`O=C(OC1CCCCCC1)[C@H]1Cc2c(sc3ccccc23)CN1` gave an IC50 in assay [1] of 55.2 nM.
Regarding `O=C(NC1CCCC1)[C@H]1Cc2c(sc3ccccc23)CN1`, the IC50 in assay [1] was 111 nM.
`O=C(NC1CCCCC1)[C@H]1Cc2c(sc3ccccc23)CN1` gave an IC50 in assay [1] of 27.2 nM.
Compound `CCC(CC)NC(=O)[C@H]1Cc2c(sc3ccccc23)CN1` came in with an IC50 in assay [1] of 126 nM.
Turning to `Cl.O=C(NC1CCCCC1O)[C@H]1Cc2c(sc3ccccc23)CN1` (stereo partly drawn), the “Latency to step through” value stood at 50.8 s in the assay with Mus musculus [2], 41.6 s with Mus musculus [3] and 68.2 s in the assay with Mus musculus [4]. The IC50 in assay [1] worked out at 148 nM. The No. of shocks in the assay with Rattus norvegicus [5] was 34.9; in the assay on Rattus norvegicus [6], 21.6; in the assay with Rattus norvegicus [7], 26.1.
For `CCCCCCNC(=O)[C@H]1Cc2c(sc3ccccc23)CN1`, in assay [1], the IC50 is 91.2 nM.
`O=C(NCC1CCCCC1)[C@H]1Cc2c(sc3ccccc23)CN1` registered an IC50 in assay [1] of 20.2 nM.
For the compound `O=C(OC1CCCCC1)[C@H]1Cc2c(sc3ccccc23)CN1`, the IC50 in assay [1] amounted to 50.4 nM.
For `O=C(Nc1ccccc1)[C@H]1Cc2c(sc3ccccc23)CN1`, in [1], the IC50 was 272 nM.
The same measure, in the same setting: then `O=C(NC1CCCCCC1)[C@H]1Cc2c(sc3ccccc23)CN1`, with 28.4 nM.
The compound `CCCCCCCNC(=O)[C@H]1Cc2c(sc3ccccc23)CN1` had a half-maximal inhibitory concentration (IC50) in assay [8] of 126 nM.
As to `O=C(NC1CCC1)[C@H]1Cc2c(sc3ccccc23)CN1`, the IC50 in [1] was 232 nM.
For `Cl.O=C(NCc1ccc2c(c1)OCO2)[C@H]1Cc2c(sc3ccccc23)CN1`, the “Latency to step through” value with Mus musculus [9] was 94.6 s; in the assay on Mus musculus [11], 104.7 s; in the assay on Mus musculus [4], 89 s. In assay [1], this compound yielded an IC50 of 53.1 nM. Further, the No. of shocks with Rattus norvegicus [10] is reported as 28.3; in the assay with Rattus norvegicus [5] it was 22.9; with Rattus norvegicus [12], 22.1. Besides, the inhibitory constant (Ki) in [13] came to 53.1 nM.
Consider `O=C(NC1CCCCCCC1)[C@H]1Cc2c(sc3ccccc23)CN1`, for which the 50% inhibitory concentration (IC50) in assay [1] worked out at 22.9 nM.
The same measure, in the same setting: then `O=C(NC12CC3CC(CC(C3)C1)C2)[C@H]1Cc2c(sc3ccccc23)CN1`, with 61.6 nM.
In assay [1], `CC(C)(C)C1CCC(NC(=O)[C@H]2Cc3c(sc4ccccc34)CN2)CC1` (stereo partly drawn) showed a concentration for half-maximal inhibition (IC50) of 52.7 nM.
Compound `CC1CCC(NC(=O)[C@H]2Cc3c(sc4ccccc34)CN2)CC1` (stereo partly drawn) registered a concentration for half-maximal inhibition (IC50) in assay [1] of 32.4 nM.
For `CC1CCCCC1NC(=O)[C@H]1Cc2c(sc3ccccc23)CN1` (stereo partly drawn), the IC50 in assay [1] amounted to 28 nM.
Consider `O=C(OC1CCCC1)[C@H]1Cc2c(sc3ccccc23)CN1`, for which the IC50 in assay [1] amounted to 121 nM.
Turning to `Cc1ccc(CNC(=O)[C@H]2Cc3c(sc4ccccc34)CN2)cc1`, in assay [1], the IC50 is 133 nM.
In the case of `C[C@H](NC(=O)[C@H]1Cc2c(sc3ccccc23)CN1)c1ccccc1`, the IC50 in [1] turned out to be 58.4 nM.
Consider `O=C(NN1CCCCC1)[C@H]1Cc2c(sc3ccccc23)CN1`, for which, in [1], the concentration for half-maximal inhibition (IC50) stood at 211 nM.
On to `O=C(OC1CCCCCCC1)[C@H]1Cc2c(sc3ccccc23)CN1`, for which the IC50 in assay [1] worked out at 67.3 nM.
Take `O=C(NC1CCCCC1)[C@@H]1Cc2c(sc3ccccc23)CN1`: the IC50 in assay [1] is greater than 5000 nM.
Same read-out and setting: then `O=C(NC1CC2CCC1C2)[C@H]1Cc2c(sc3ccccc23)CN1` (stereo partly drawn), with 66.4 nM.
Compound `O=C(NCc1ccc2c(c1)OCO2)C1Cc2c(sc3ccccc23)CN1` (single isomer, unassigned) yielded an IC50 in [1] greater than 5000 nM.
As for `CN1C(=O)CN=C(c2ccccc2)c2cc(Cl)ccc21` [DIAZEPAM], the No. of shocks in the assay with Rattus norvegicus [14] stood at 25.6. Also, in the assay with Mus musculus [15], the “Latency to step through” value came to 10.6 s.
Regarding `CN1[C@@H]2C[C@@H](OC(=O)[C@H](CO)c3ccccc3)C[C@H]1[C@@H]1O[C@@H]12` [SCOPOLAMINE], in the assay on Mus musculus [16], the “Latency to step through” value was 16 s.
On D(2) dopamine receptor, `O=C1[C@@H]2[C@H]3CC[C@H](C3)[C@@H]2C(=O)N1CCCCN1CCN(c2ncccn2)CC1` [TANDOSPIRONE HYDROCHLORIDE] returned a Ki of 28 nM.
